Article PMC7168207, “Dibasic Derivatives of Phenylcarbamic Acid as Prospective Antibacterial Agents Interacting with Cytoplasmic Membrane” (Antibiotics, 2020)
Values joined by “and” are separate entries in the source; they are usually repeats but may differ in a detail not shown here. Equal values may be shown once. Read-outs that look alike come from different tables or passages of the source. Marks after values point to notes of the source that are not given here.

How the values were obtained:
[1] = parameters: method as in PMID 30274224; details: cited from earlier work
[2] = system: S. aureus ATCC 29213 biofilm; assay: biofilm susceptibility / eradication of preformed biofilm (MTT); type: cell-based, Staphylococcus aureus; details: for MBEC80 (minimum biofilm eradication concentration): 80% reduction of metabolic activity of preformed biofilm, 24 h
Experimental: The ability of compounds 1f, 1g, and 1h to inhibit biofilm growth and destroy the matured biofilm of S. aureus ATCC 29213 was investigated. The inhibitory activity was studied by the method with crystal violet. The activity to disrupt matured biofilm was evaluated as a decrease of metabolic activity using the MTT assay.
Biofilms were grown as described above but without the presence of the compounds. After 48 h of incubation at 37 °C, the contents of the wells were removed, and the plates were washed three times by sterile PBS. After washing, 100 µL of tested compounds in CaMH were added to the wells. […] A growth control containing 2.5% of DMSO in CaMH was included. The plates were incubated at 37 °C for 24 h, then the solutions of compounds were removed, and the plates were gently washed three times by sterile PBS. Bacterial viability was analyzed using 100 µL of 0.05 mg/mL MTT (3-(4,5-dimethylthiazol-2-yl)- 2,5-diphenyltetrazolium bromide) in PBS in each well. The plates with MTT were incubated at 37 °C for 1–2 h in darkness, until the blue formazan crystals appeared. MTT solution was removed and the plates were washed once by PBS. Crystals of formazan were dissolved using 17% sodium dodecysulphate in 40% dimethylformamid. The absorbance at 570 nm was measured and the percentage of eradication was counted according to the equation (3) % of eradication = 100 − OD570S/OD570C × 100 where OD570S is the absorbance of the sample at 570 nm and OD570C is the absorbance of the growth control at 570 nm. The minimum biofilm eradication concentration was the lowest concentration of the compound, which reduced the metabolic activity of the biofilm by 80% compared to the growth control. The experiment was made in duplicate and repeated at least three times.

MRSA 63718 = assay: time-kill study; type: cell-based, Staphylococcus aureus; details: MRSA1
Source text: (§1) Time-kill studies are used to evaluate the dynamics of antibacterial activity. As mentioned above, a pre-test to determine minimum bactericidal concentration (MBC) by sub-cultivation of aliquots on agar was made (see Section 3.4). […] Time-kill studies were made with methicillin-susceptible S. aureus ATCC 29213 and methicillin-resistant MRSA 63718, vancomycin-susceptible E. faecalis ATCC 29212, and all three VRE isolates. Vancomycin was used as a control (Table 6).
(§2) The method of time-kill curves was used to study the bactericidal effect of selected compounds. […] The experiment was performed with S. aureus ATCC 29213, MRSA 63718, E. faecalis ATCC 29212, and all VRE isolates. […] The tubes were inoculated by bacterial inoculum in the exponential phase of growth to get a final concentration of 7.5 × 10^6 CFU/mL. The tubes were incubated statically at 37 °C. Immediately after inoculation and after 4, 6, 8, and 24 h, 100 µL of the sample was serially diluted (1:10) in PBS. Then, 2 × 20 µL from each dilution were put onto a Mueller–Hinton agar plate and cultivated at 37 °C for 24 h. After incubation, CFUs of dilutions containing 5–50 colonies were counted. Results were expressed as a decrease of log10(CFU) in each time compared to the starting inoculum. Bactericidal effect is defined as a −3log decrease of CFU/mL compared to the growth control in time 0. The test was made in duplicate on two separate occasions, and the results were averaged. The growth curves with error bars are shown in Figures S1 and S2 in Supplementary Materials.

S. aureus ATCC 29213 = assay: time-kill study; type: cell-based, Staphylococcus aureus; details: SA
Source text: as §1, §2

VRE 368 = assay: synergy with antibiotics (FIC index, checkerboard); type: cell-based, Enterococcus faecalis; details: for MIC: Enterococcus, VRE, read-out: MIC of each antibacterial drug alone observed in the synergy experiment; for concentrations of the tested compound/clinically used antibiotic providing additivity or synergy: in the combination of that line
Source text: (§3) Representatives from various classes were chosen in order to study the potential difference in synergistic activity according to the diverse mechanisms of action and resistance of these drugs. The method of minimal fractional inhibitory concentration (FIC) index (FICI) in a microtitration plate was used. FICI ≤ 0.5 means synergy; 0.5 < FICI < 1 means additivity; 1 ≤ FICI < 4 means indifference; and FICI ≥ 4 means antagonism.
(§4) For synergy effect study, a method of fractional inhibitory concentration was used. […] Raw H was used for the evaluation of MIC(A); column 12 was used for evaluation of MIC(B). The plate was inoculated by the bacterial suspension to reach final concentration of 5 × 10^5 CFU/mL in the wells. The fractional inhibitory concentration (FIC) index was calculated using the concentrations in the first nonturbid (clear) well found in each row and column along the turbidity/nonturbidity interface. To interpret the combined effect, the lowest FICI was used. A ΣFIC ≤ 0.5 means synergy; 0.5 < ΣFIC < 1 means additivity; 1 ≤ ΣFIC < 4 means indifference; and ΣFIC ≥ 4 means antagonism. The tests were made in duplicate, and the results were averaged.

VRE 342B = assay: synergy with antibiotics (FIC index, checkerboard); type: cell-based, Enterococcus faecalis; details: for MIC: Enterococcus, read-out: MIC of each antibacterial drug alone observed in the synergy experiment; for concentrations of the tested compound/clinically used antibiotic providing additivity or synergy: in the combination of that line
Source text: as §3, §4

[3] = VRE 368, tested compound/antibiotic
[4] = VRE 342B, tested compound/antibiotic

Compound	γ (surface tension, relative surface activity) [1]	MBEC80 (minimum biofilm eradication concentration) [2]	Log10 Difference in CFU/mL from Inoculum (MRSA 63718; 1 × MIC, 4 h)	Log10 Difference in CFU/mL from Inoculum (MRSA 63718; 1 × MIC, 6 h)	Log10 Difference in CFU/mL from Inoculum (MRSA 63718; 1 × MIC, 8 h)	Log10 Difference in CFU/mL from Inoculum (MRSA 63718; 1 × MIC, 24 h)	Log10 Difference in CFU/mL from Inoculum (MRSA 63718; 2 × MIC, 4 h)	Log10 Difference in CFU/mL from Inoculum (MRSA 63718; 2 × MIC, 6 h)	Log10 Difference in CFU/mL from Inoculum (MRSA 63718; 2 × MIC, 8 h)	Log10 Difference in CFU/mL from Inoculum (MRSA 63718; 2 × MIC, 24 h)	Log10 Difference in CFU/mL from Inoculum (MRSA 63718; 4 × MIC, 4 h)	Log10 Difference in CFU/mL from Inoculum (MRSA 63718; 4 × MIC, 6 h)	Log10 Difference in CFU/mL from Inoculum (MRSA 63718; 4 × MIC, 8 h)	Log10 Difference in CFU/mL from Inoculum (MRSA 63718; 4 × MIC, 24 h)	Log10 Difference in CFU/mL from Inoculum (S. aureus ATCC 29213; 1 × MIC, 4 h)	Log10 Difference in CFU/mL from Inoculum (S. aureus ATCC 29213; 1 × MIC, 6 h)	Log10 Difference in CFU/mL from Inoculum (S. aureus ATCC 29213; 1 × MIC, 8 h)	Log10 Difference in CFU/mL from Inoculum (S. aureus ATCC 29213; 1 × MIC, 24 h)	Log10 Difference in CFU/mL from Inoculum (S. aureus ATCC 29213; 2 × MIC, 4 h)	Log10 Difference in CFU/mL from Inoculum (S. aureus ATCC 29213; 2 × MIC, 6 h)	further results
CCCCCOc1cccc(NC(=O)OC(CN(CCC)CCC)CN2CCCC2)c1.Cl.Cl (stereo not drawn) [1f, 1-[3-(dipropylammonio)-2-({[3-(pentyloxy)phenyl]carbamoyl}-oxy)propyl]pyrrolidinium dichloride]	0.06285 N/m	64 µg/mL																			
CCCCCCOc1cccc(NC(=O)OC(CN(CCC)CCC)CN2CCCC2)c1.Cl.Cl (stereo not drawn) [1g, 1-[3-(dipropylammonio)-2-({[3-(hexyloxy)phenyl]carbamoyl}oxy)propyl]pyrrolidinium dichloride]	0.06105 N/m	16 µg/mL	0.00 log10 CFU/mL	0.66 log10 CFU/mL	1.00 log10 CFU/mL	1.99 log10 CFU/mL	−1.33 log10 CFU/mL	−0.93 log10 CFU/mL	−0.26 log10 CFU/mL	1.29 log10 CFU/mL	−2.57 * log10 CFU/mL	−1.99 * log10 CFU/mL	−1.26 * log10 CFU/mL	1.21 log10 CFU/mL	1.54 log10 CFU/mL	1.98 log10 CFU/mL	2.33 log10 CFU/mL	2.74 log10 CFU/mL	0.87 log10 CFU/mL	0.98 log10 CFU/mL	Log10 Difference in CFU/mL from Inoculum (S. aureus ATCC 29213; 2 × MIC, 8 h): 1.26 log10 CFU/mL; Log10 Difference in CFU/mL from Inoculum (S. aureus ATCC 29213; 2 × MIC, 24 h): 2.24 log10 CFU/mL; Log10 Difference in CFU/mL from Inoculum (S. aureus ATCC 29213; 4 × MIC, 4 h): −0.26 log10 CFU/mL; Log10 Difference in CFU/mL from Inoculum (S. aureus ATCC 29213; 4 × MIC, 6 h): −0.04 log10 CFU/mL; Log10 Difference in CFU/mL from Inoculum (S. aureus ATCC 29213; 4 × MIC, 8 h): 0.10 log10 CFU/mL; Log10 Difference in CFU/mL from Inoculum (S. aureus ATCC 29213; 4 × MIC, 24 h): 1.85 log10 CFU/mL; MIC (VRE 368; [3]): 8 µg/mL; concentrations of the tested compound/clinically used antibiotic providing additivity or synergy (VRE 368; VRE 368): 4 µg/mL; MIC (VRE 342B; [4]): 8 µg/mL; concentrations of the tested compound/clinically used antibiotic providing additivity or synergy (VRE 342B; VRE 342B): 4 µg/mL
CCCCCCCOc1cccc(NC(=O)OC(CN(CCC)CCC)CN2CCCC2)c1.Cl.Cl (stereo not drawn) [1h, 1-[3-(Dipropylammonio)-2-({[3-(heptyloxy)phenyl]carbamoyl}oxy)propyl]pyrrolidinium dichloride]	0.05786 N/m	16 µg/mL	−0.73 * log10 CFU/mL	−0.11 log10 CFU/mL	0.98 log10 CFU/mL	1.58 log10 CFU/mL	−0.92 * log10 CFU/mL	−0.42 * log10 CFU/mL	−0.13 log10 CFU/mL	1.62 log10 CFU/mL	−2.48 * log10 CFU/mL	−2.40 * log10 CFU/mL	−2.08 * log10 CFU/mL	1.35 log10 CFU/mL	0.08 log10 CFU/mL	0.31 log10 CFU/mL	0.50 log10 CFU/mL	2.07 log10 CFU/mL	0.05 log10 CFU/mL	0.10 log10 CFU/mL	Log10 Difference in CFU/mL from Inoculum (S. aureus ATCC 29213; 2 × MIC, 8 h): 0.05 log10 CFU/mL; Log10 Difference in CFU/mL from Inoculum (S. aureus ATCC 29213; 2 × MIC, 24 h): 2.01 log10 CFU/mL; Log10 Difference in CFU/mL from Inoculum (S. aureus ATCC 29213; 4 × MIC, 4 h): −0.25 log10 CFU/mL; Log10 Difference in CFU/mL from Inoculum (S. aureus ATCC 29213; 4 × MIC, 6 h): −0.13 log10 CFU/mL; Log10 Difference in CFU/mL from Inoculum (S. aureus ATCC 29213; 4 × MIC, 8 h): −0.08 log10 CFU/mL; Log10 Difference in CFU/mL from Inoculum (S. aureus ATCC 29213; 4 × MIC, 24 h): 1.93 log10 CFU/mL; concentration giving 80% degradation of preformed biofilm relative to MIC [2]: two-fold; MIC (VRE 368; [3]): 4 µg/mL; MIC (VRE 342B; [4]): 8 µg/mL; concentrations of the tested compound/clinically used antibiotic providing additivity or synergy (VRE 342B; VRE 342B): 2 µg/mL
CN[C@H](CC(C)C)C(=O)N[C@H]1C(=O)N[C@@H](CC(N)=O)C(=O)N[C@H]2C(=O)N[C@H]3C(=O)N[C@H](C(=O)N[C@H](C(=O)O)c4cc(O)cc(O)c4-c4cc3ccc4O)[C@H](O)c3ccc(c(Cl)c3)Oc3cc2cc(c3O[C@@H]2O[C@H](CO)[C@@H](O)[C@H](O)[C@H]2O[C@H]2C[C@](C)(N)[C@H](O)[C@H](C)O2)Oc2ccc(cc2Cl)[C@H]1O [VAN, vancomycin, reference compound]			−1.00 log10 CFU/mL	−1.50 log10 CFU/mL	−1.76 log10 CFU/mL	0.55 log10 CFU/mL	−0.91 log10 CFU/mL	−1.43 log10 CFU/mL	−1.97 log10 CFU/mL	−5.18 log10 CFU/mL	−1.31 log10 CFU/mL	−1.75 log10 CFU/mL	−3.89 log10 CFU/mL	−5.19 log10 CFU/mL	−0.37 log10 CFU/mL	−0.65 log10 CFU/mL	−0.84 log10 CFU/mL	2.90 log10 CFU/mL	−0.26 log10 CFU/mL	−0.59 log10 CFU/mL	Log10 Difference in CFU/mL from Inoculum (S. aureus ATCC 29213; 2 × MIC, 8 h): −1.12 log10 CFU/mL; Log10 Difference in CFU/mL from Inoculum (S. aureus ATCC 29213; 2 × MIC, 24 h): −3.67 log10 CFU/mL; Log10 Difference in CFU/mL from Inoculum (S. aureus ATCC 29213; 4 × MIC, 4 h): −0.27 log10 CFU/mL; Log10 Difference in CFU/mL from Inoculum (S. aureus ATCC 29213; 4 × MIC, 6 h): −0.38 log10 CFU/mL; Log10 Difference in CFU/mL from Inoculum (S. aureus ATCC 29213; 4 × MIC, 8 h): −1.18 log10 CFU/mL; Log10 Difference in CFU/mL from Inoculum (S. aureus ATCC 29213; 4 × MIC, 24 h): −5.47 log10 CFU/mL; MIC (VRE 368): 512 µg/mL; concentrations of the tested compound/clinically used antibiotic providing additivity or synergy (VRE 368; VRE 368): 128 µg/mL; MIC (VRE 342B; VRE): 1020 µg/mL; concentrations of the tested compound/clinically used antibiotic providing additivity or synergy (VRE 342B; VRE 342B): 128 µg/mL and 256 µg/mL
